Data from paper PMC2063203, “The renal effects of the water-soluble, non-folylpolyglutamate synthetase-dependent thymidylate synthase inhibitor ZD9331 in mice” (British Journal of Cancer, 1998).
Where “and” joins values, the source holds several entries; their conditions need not be identical. Equal values may be shown once.

Test system: DBA-2 mice
Assay: Glomerular filtration rate (GFR) by [14C]inulin clearance after bolus drug
Format: in vivo
Method: British Journal of Cancer (1998) 78(11), 1457-1463 ? […] In contrast to Tomudex (ZD1694), ZD9331 may therefore be active against tumours with low FPGS activity. […] In view of the history of renal toxicity with some earlier TS inhibitors and the possible therapeutic use of bolus ZD9331, we have examined the effects of bolus ZD9331 dose and route of administration on plasma and kidney pharmacokinetics and renal function in mice. Renal function was assessed by measuring [14C]inulin clearance, and drug concentrations were assayed by reverse-phase high-performance liquid chromatography (HPLC). […] Kidney drug concentrations were slightly elevated in iv.- versus i.p.-treated animals at the low dose (50 mg kg-'), with a correspondingly larger area under the curve. However, at the highest dose (200 mg kg-'), peak kidney drug concentrations were 20-fold higher following i.v. administration than after i.p., with marked kidney retention, resulting in a 50-fold greater kidney drug exposure for the i.v. versus the i.p. route. […] These adverse effects can be readily overcome by i.p. administration, indicating the likely need for short infusions in clinical settings. […] Early studies established that nephrotoxicity may be a result of poor aqueous solubility of 2-amino compounds such as CB3717, and it was shown that 2-desamino CB3717 was more water soluble and less nephrotoxic (Jones et al, 1989; 1996). […] These polyglutamate forms also exibit intra- cellular retention, which may contribute to toxicity as well as anti- tumour activity. […] Such compounds might be expected to show activity in a different spectrum of tumours from ZD1694 and to have a more manageable toxicity profile because of the lack of retained cyto- toxic metabolites. […] MATERIALS AND METHODS Drug administration and animals The compound ZD933 1 (Figure 1) was provided as a white crystalline salt. ['4C]inulin was provided as a carboxylic acid (Amersham, UK, 250 µCi in 5 ml, specific activity 6.6 mCi mmol-') and diluted to an activity of 5 µCi ml-' in phosphate-buffered saline (PBS). ZD9331 was dissolved in 0.05 M sodium bicarbonate, 1457 1458 Ml Walton et al ~~ N Ny~~~14COOHH 0 H IN H N CH ~~~~H , 4 H3C N3 H Figure 1 The chemical structure of ZD9331 adjusted to pH 9.0 and administered either i.v. via the tail vein or i.p. at 0.01 ml g-' mouse body weight. [14C]inulin was administered at 0.05 gCi g-' (i.e. 0.01 ml g-') i.v. via the tail vein. Adult female DBA-2 mice were obtained from OLAC (Bicester, UK) and used at 8-12 weeks of age at a body weight of 15-25 g. Mice were housed in cages containing untreated sawdust and allowed access to food and water ad libitum. Sample preparation Plasma and tissue samples were prepared using standard tech- niques (Walton et al, 1996). Briefly, whole blood was obtained by cardiac puncture into heparinized syringes from halothane- anaesthetized mice. Plasma was prepared by centrifugation at 12 000 r.p.m. x 2 min in a bench-top microcentrifuge. Kidney and liver tissues were rapidly removed, washed and snap frozen on dry ice. Frozen plasma and tissues were stored at -20?C for up to 4 weeks prior to analysis. Individual samples were thawed on ice and handled rapidly. ZD9331 was extracted from whole plasma or tissue homogenates (33% w/v in 0.1 M Tris, pH 10.0) by the addition of an equal volume of acetonitrile, mixing and centrifugation and the super- natant removed for injection into the HPLC system. Samples were diluted with Tris buffer (0.1 M, pH 10.0) on to the linear part of the calibration curve prior to HPLC analysis. Extraction efficiencies were >95%. HPLC analysis Concentrations of ZD9331 were measured in biological samples using reversed phase HPLC on equipment supplied by Kontron (Watford, UK). Separations were carried out using stainless-steel columns heated at 45?C and packed with C18 Supelcosil ODS (10 cm x 4.6 mm, 5 µm bead size, Sigma, Dorset) and protected with NewGuard C18 columns (Anachem, Luton, UK). […]

[14C]inulin [reference compound]
plasma clearance of [14C]inulin (normal DBA-2 mice, i.v., two independent experiments): 19.5 mL/min/kg and 21.3 mL/min/kg

C#CCN(Cc1ccc2nc(N)[nH]c(=O)c2c1)c1ccc(C(=O)N[C@@H](CCC(=O)O)C(=O)O)cc1 [CB3717, N10-propargyl-5,8-dideazafolic acid, reference compound]
effect on GFR (150 mg kg-1 i.p., 24 h after administration): significant renal toxicity | effect on GFR (150 mg kg-1 i.v., 4 h after administration): significant renal toxicity | effect on GFR (150 mg kg-1 i.v., 24 h after administration): significant renal toxicity
